Measurements published in US20180346446A1, “IRE1 SMALL MOLECULE INHIBITORS” (QUENTIS THERAPEUTICS, INC., priority 2017, published 2018).

Columns and labels:
[1] = biological target: T1, IRE1a (Homo sapiens, UniProt O75460); assay: IRE1a Endoribonuclease Nanoluciferase Assay (XBP1 luciferase reporter in 293T cells); format: cell-based; conditions: 293T cells transfected with XBP1 luciferase reporter, ER stressors +/- inhibitors
Procedure: Compounds disclosed herein were assessed for disruption of IRE1 signaling using a IRE1a Endoribonuclease Nanoluciferase Assay. Briefly, 2.5×10^6 293T cells were seeded in a 10 cm^2 tissue culture plate. About 24 hours later, the cells were transfected with Effectene. In a 15 mL Tube, the following was added: 2 ug XBP1 luciferase reporter plasmid (PGK-Luc2-P2A-XBP1u-Nanoluciferase-PEST); 300 ul EC buffer; and 16 ul Enhancer, followed by incubation at room temp for 5 minutes. Next, 60 ul Effectene (Qiagen 301427) was added, followed by incubation at room temperature for 10 minutes. 2.6 mL cDMEM media was added. Old media was aspirated from the cells, followed by addition of 7 mL fresh media. Full transfection mixture was added dropwise to cells. Cells were incubated for 6 hours, followed by trypsinization, centrifugation and resuspension in 11 mL media. 100 uL of cells were plated per a well in a 96 well plate. A day later, ER stressors of choice +/− inhibitors were added. To harvest, media was aspirated from cells completely, then 50 uL 1× passive lysis buffer (Promega: E1941) was added per well and put on shaker (300 rpm) for 30 minutes at room temperature. Cells were centrifuged, and 15 uL sample per well was added to a new, opaque white 384 well plate (Corning 3570). 15 uL OneGlo (nanoluciferase kit, Promega N1630) was added. Plates were spun down, placed on shaker (300 rpm) for 10 minutes. Plates were read on luminometer, 1000 ms integration time per well. 15 uL Stop and Glo (nanoluciferase kit) was added. Plates were spun down, placed on shaker (300 rpm) for 10 minutes. Plates were read on luminometer, 1000 ms second integration time per well. Recordings are provided below in Table 4.

[2] = biological target: T1, IRE1a; assay: In vitro FRET assay (XBP1 RNA probe cleavage by IRE1a); format: biochemical; design: purchased SignalChem; conditions: 2 nM IRE1a protein
Procedure: In vitro FRET assay was performed to evaluate the ability of select compounds to inhibit IRE1, the results of which are summarized in Table 3. To perform the in vitro FRET assay, 1× complete assay buffer (CAB; […], 50 mM sodium citrate pH 7.15, ImM magnesium acetate, 0.02% tween 20) was used to dilute SignalChem IRE1a protein to a final concentration of 2 nM. Selected compounds were serially diluted with DMSO in a non-binding black 384-well plate for a total of 15 ul in each well. 2 ul of the serially diluted compound or DMSO control were then added to new wells containing 98 ul of 1×CAB, for a total volume of 100 ul, 10 ul of which were then transferred to wells of a new plate. 5 ul of the diluted IRE1a was then added to each well. 5 ul of a […] XBP1 RNA probe was then added to each well. Fluorescence was then read over 30 minutes in kinetic mode (485/515 nm).
Two RNA probes were used, XBP1 wildtype (SEQ ID NO: 2) which is able to be spliced by active IRE1a or XBP1 mutant (SEQ ID NO: 3) which is unable to be spliced. Each probe contained a 5′ 6-FAM modification and a 3′ IOWA Black FQ modification. […]

T1 sequence (O75460 19-977): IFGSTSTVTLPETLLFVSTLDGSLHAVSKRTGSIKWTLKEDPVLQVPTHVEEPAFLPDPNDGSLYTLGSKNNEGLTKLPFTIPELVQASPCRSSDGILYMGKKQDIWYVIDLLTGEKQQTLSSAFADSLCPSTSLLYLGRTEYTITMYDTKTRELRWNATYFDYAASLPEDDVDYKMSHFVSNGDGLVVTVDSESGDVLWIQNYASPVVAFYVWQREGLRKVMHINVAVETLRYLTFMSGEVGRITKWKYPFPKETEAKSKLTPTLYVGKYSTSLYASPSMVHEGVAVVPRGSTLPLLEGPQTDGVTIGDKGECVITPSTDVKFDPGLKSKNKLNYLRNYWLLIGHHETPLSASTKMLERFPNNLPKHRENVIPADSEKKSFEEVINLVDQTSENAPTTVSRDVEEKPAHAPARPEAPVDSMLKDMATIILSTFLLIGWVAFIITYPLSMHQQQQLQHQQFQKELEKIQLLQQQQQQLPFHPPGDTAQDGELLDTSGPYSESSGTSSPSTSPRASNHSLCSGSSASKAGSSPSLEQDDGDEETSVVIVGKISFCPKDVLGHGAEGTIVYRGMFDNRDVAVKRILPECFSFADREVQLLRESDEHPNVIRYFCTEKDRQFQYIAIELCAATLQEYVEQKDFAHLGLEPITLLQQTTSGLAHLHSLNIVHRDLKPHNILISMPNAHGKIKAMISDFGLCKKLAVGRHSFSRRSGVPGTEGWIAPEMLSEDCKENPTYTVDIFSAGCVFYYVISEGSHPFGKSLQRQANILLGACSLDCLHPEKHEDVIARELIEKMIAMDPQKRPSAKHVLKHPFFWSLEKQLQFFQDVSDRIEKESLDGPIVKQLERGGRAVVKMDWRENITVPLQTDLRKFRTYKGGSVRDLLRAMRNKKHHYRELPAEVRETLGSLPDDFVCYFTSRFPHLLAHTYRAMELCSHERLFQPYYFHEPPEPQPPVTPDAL

Compound | EC50 [1] | IC50 [2]
CCc1cc(-c2ccc(NS(=O)(=O)c3ccccc3Cl)c(F)c2)cc2cnc(N[C@@H]3CC[C@@H](N)C3)nc12 [78; Formic Acid] | ≤ 5 nM | ≤ 5 nM
CCc1cc(-c2ccc(NS(=O)(=O)c3ccccc3Cl)c(F)c2)cc2cnc(N[C@@H]3CC[C@H](N)[C@H](C)C3)nc12 [70; Formic Acid] | ≤ 5 nM | ≤ 5 nM
N[C@H]1CC[C@H](Nc2ncc3cc(-c4c(F)cc(NS(=O)(=O)c5ccccc5Cl)cc4F)ccc3n2)CC1 [62; Formic Acid] | 5 to 50 nM | ≤ 5 nM
CCc1cc(-c2cc(NS(=O)(=O)c3ccccc3Cl)nn2C)cc2cnc(N[C@H]3CC[C@H](N)CC3)nc12 [Compound 6, N-(5-(2-(((1r,4r)-4-aminocyclohexyl)amino)-8-ethylquinazolin-6-yl)-1-methyl-1H-pyrazol-3-yl)-2-chlorobenzenesulfonamide] | 50 to 100 nM | ≤ 5 nM
COc1nc(NS(=O)(=O)c2ccccc2C#N)ccc1-c1cc2cnc(N[C@H]3CC[C@H](N)CC3)nc2cc1C [102; Formic Acid] | 50 to 100 nM | ≤ 5 nM
CCc1cc(-c2ccc(NS(=O)(=O)c3ccccc3Cl)c(F)c2)cc2cnc(N[C@@H]3CC[C@@H](N)[C@H](C)C3)nc12 [74; Formic Acid] | ≤ 5 nM | ≤ 5 nM
CCc1cc(-c2ccc(NS(=O)(=O)c3ccccc3Cl)c(F)c2)cc2cnc(N[C@@H]3CCC[C@H](N)C3)nc12 [72; Formic Acid] | > 100 nM | ≤ 5 nM
N[C@H]1CC2C[C@@H](Nc3ncc4cc(-c5ccc(NS(=O)(=O)c6ccccc6Cl)c(F)c5)ccc4n3)CC2C1 (stereo partly drawn) [85; Formic Acid] | > 100 nM | ≤ 5 nM
Cc1cc(NS(=O)(=O)c2ccccc2Cl)ncc1-c1ccc2nc(N[C@H]3CC[C@H](N)CC3)ncc2c1 [Compound 5, N-(5-(2-(((1r,4r)-4-aminocyclohexyl)amino)quinazolin-6-yl)-4-methylpyridin-2-yl)-2-chlorobenzenesulfonamide] | > 100 nM | ≤ 5 nM
CCc1cc(-c2ccc(NS(=O)(=O)c3ccccc3Cl)c(F)c2)cc2cnc(N[C@H]3CCCNC3)nc12 [73; Formic Acid] | ≤ 5 nM | ≤ 5 nM
N[C@H]1CC[C@H](Nc2ncc3cc(-c4ccc(NS(=O)(=O)c5ccccc5Cl)cc4)ccc3n2)CC1 [26; Formic Acid] | ≤ 5 nM | ≤ 5 nM
Cn1nc(NS(=O)(=O)c2ccccc2Cl)cc1-c1ccc2nc(N[C@H]3CC[C@H](N)CC3)ncc2c1 [Compound 1, N-(5-(2-(((1r,4r)-4-aminocyclohexyl)amino)quinazolin-6-yl)-1-methyl-1H-pyrazol-3-yl)-2-chlorobenzenesulfonamide] | > 100 nM | 5 to 50 nM
N[C@H]1CC[C@H](Nc2ncc3cc(-c4nnc(NS(=O)(=O)c5ccccc5Cl)s4)ccc3n2)CC1 [89; Formic Acid] | > 100 nM | ≤ 5 nM
N[C@@H]1CC[C@@H](Nc2ncc3cc(-c4ccc(NS(=O)(=O)c5ccccc5Cl)c(F)c4)ccc3n2)C1 [77; Formic Acid] | 5 to 50 nM | ≤ 5 nM
N-(4-(2-(((1r,4r)-4-aminocyclohexyl)amino)quinazolin-6-yl)-3-methylphenyl)-3-chlorobenzenesulfonamide [Compound 11] | > 100 nM | ≤ 5 nM
COc1nc(NS(=O)(=O)c2ccccc2Cl)ccc1-c1cc(C(C)(F)F)c2nc(N[C@H]3CC[C@H](N)CC3)ncc2c1 [123; Formic Acid] | ≤ 5 nM | ≤ 5 nM
CCc1cc(-c2cnc(NS(=O)(=O)c3ccccc3Cl)cc2C)cc2cnc(N[C@H]3CC[C@H](N)CC3)nc12 [Compound 4, N-(5-(2-(((1r,4r)-4-aminocyclohexyl)amino)-8-ethylquinazolin-6-yl)-4-methylpyridin-2-yl)-2-chlorobenzenesulfonamide] | 50 to 100 nM | ≤ 5 nM
CCc1cc(-c2ccc(NS(=O)(=O)c3ccccc3Cl)c(F)c2)cc2cnc(N[C@H]3CC[C@H](N4CCCC4)CC3)nc12 [88; Formic Acid] | ≤ 5 nM | ≤ 5 nM
COCc1cc(-c2ccc(NS(=O)(=O)c3ccccc3Cl)nc2OC)cc2cnc(N[C@H]3CC[C@H](N)CC3)nc12 [129; Formic Acid] | ≤ 5 nM | ≤ 5 nM
CCc1cc(-c2ccc(NS(=O)(=O)c3ccccc3OC)nc2OC)cc2cnc(N[C@H]3CC[C@H](N)CC3)nc12 [109; Formic Acid] | ≤ 5 nM | ≤ 5 nM

Compound | EC50 [1] | IC50 [2]
CCc1cc(-c2cnc(NS(=O)(=O)c3ccccc3Cl)cc2OC)cc2cnc(N[C@H]3CC[C@H](N)CC3)nc12 [92; Formic Acid] | > 100 nM | ≤ 5 nM
NC12CCC(Nc3ncc4cc(-c5ccc(NS(=O)(=O)c6ccccc6Cl)c(F)c5)ccc4n3)(CC1)CC2 [81; Formic Acid] | ≤ 5 nM | ≤ 5 nM
COc1nc(NS(=O)(=O)c2ccccc2Cl)ccc1-c1cc(C)c2nc(N[C@H]3CC[C@@H](N)CC3)ncc2c1 [138; Formic Acid] | 50 to 100 nM | ≤ 5 nM
NC1CCCC(Nc2ncc3cc(-c4ccc(NS(=O)(=O)c5ccccc5Cl)c(F)c4)ccc3n2)C1 (stereo not drawn) [75; Formic Acid] | > 100 nM | ≤ 5 nM
N[C@H]1CC[C@H](Nc2ncc3cc(-c4ccc(NS(=O)(=O)c5ccccc5Cl)c(F)c4F)ccc3n2)CC1 [56; Formic Acid] | ≤ 5 nM | ≤ 5 nM
CCc1cc(-c2ccc(NS(=O)(=O)c3ccccc3Cl)c(F)c2)cc2cnc(N[C@H]3CC[C@H](NC)CC3)nc12 [60; Formic Acid] | ≤ 5 nM | ≤ 5 nM
CCCc1cc(-c2cc(NS(=O)(=O)c3ccccc3Cl)nn2C)cc2cnc(N[C@H]3CC[C@H](N)CC3)nc12 [47; Formic Acid] | 5 to 50 nM | ≤ 5 nM
NC12CCC(Nc3ncc4cc(-c5ccc(NS(=O)(=O)c6ccccc6Cl)c(F)c5)ccc4n3)(CC1)C2 [86; Formic Acid] | 50 to 100 nM | ≤ 5 nM
COc1nc(NS(=O)(=O)c2ccccc2Cl)ccc1-c1cc2cnc(N[C@H]3CC[C@H](N)CC3)nc2cc1C [104; Formic Acid] | 50 to 100 nM | ≤ 5 nM
CCc1cc(-c2ccc(NS(=O)(=O)c3ccccc3Cl)c(F)c2)cc2cnc(N[C@H]3CC4C[C@@H](N)CC4C3)nc12 (stereo partly drawn) [84; Formic Acid] | 5 to 50 nM | ≤ 5 nM
CCc1cc(-c2ccc(NS(=O)(=O)c3ccccc3C)nc2OC)cc2cnc(N[C@H]3CC[C@H](N)CC3)nc12 [103; Formic Acid] | ≤ 5 nM | ≤ 5 nM
CCc1cc(-c2ccc(NS(=O)(=O)c3ccccc3C)nc2C)cc2cnc(N[C@H]3CC[C@H](N)CC3)nc12 [112; Formic Acid] | 5 to 50 nM | ≤ 5 nM
CCc1cc(-c2ncc(NS(=O)(=O)c3ccccc3Cl)cc2OC)cc2cnc(N[C@H]3CC[C@H](N)CC3)nc12 [93; Formic Acid] | ≤ 5 nM | ≤ 5 nM
O=S(=O)(Nc1ccc(-c2ccc3nc(N[C@H]4CCCNC4)ncc3c2)cc1F)c1ccccc1Cl [76; Formic Acid] | 5 to 50 nM | ≤ 5 nM
CCc1cc(-c2cc(NS(=O)(=O)c3ccccc3Cl)no2)cc2cnc(N[C@H]3CC[C@H](N)CC3)nc12 [44; Formic Acid] | ≤ 5 nM | ≤ 5 nM
COc1nc(NS(=O)(=O)c2ccccc2Cl)ccc1-c1cc(C(F)(F)F)c2nc(N[C@H]3CC[C@H](N)CC3)ncc2c1 [134; Formic Acid] | ≤ 5 nM | ≤ 5 nM
N[C@H]1CC[C@H](Nc2ncc3cc(-c4ncc(NS(=O)(=O)c5ccccc5Cl)cc4F)ccc3n2)CC1 [51; Formic Acid] | 50 to 100 nM | ≤ 5 nM
CCc1cc(-c2cc(F)c(NS(=O)(=O)c3ccccc3Cl)cc2OC)cc2cnc(N[C@H]3CC[C@H](NC)CC3)nc12 [121; Formic Acid] | ≤ 5 nM | ≤ 5 nM
CCc1cc(-c2ccc(NS(=O)(=O)c3ccccc3Cl)c(F)c2)cc2cnc(N[C@H]3CC[C@H](NC(=O)[C@@H](N)C(C)C)CC3)nc12 [58; Formic Acid] | ≤ 5 nM | 5 to 50 nM
